Laboratory results from patent US7399825B2, “Synthetic peptide, inhibitor to DNA viruses” (priority 2003, dated 2008).
No end group written: not given here.

Assays:
[1] = test system: herpes viruses; test: Antiviral activity of synthetic Herp versions (13, 10 and 5 amino acids); format: cell-based; details: synthetic versions of Herp compared
Experimental: ID. […] The sequencing and synthesizing was contracted out to the Protein Core Laboratory of Baylor College of Medicine, Houston, Tex.
Infectivity Inhibition of HSV-1 and HSV-2 Viruses by Synthetic Herp: For comparison, Herpoxin and the synthetic Herps were tested in Vero cell cultures infected with HSV-1 or HSV-2 viruses. The cells were infected in serial concentrations from 10^2 to 10^8. Three wells were used for each concentration. After absorption of the virus the cultures were divided into three groups. Group one received medium containing PBS as a […] control, group two received medium containing 10 μg/ml of Herpoxin (natural Herp) and in the remaining group the medium was incorporated with 10 μg/ml synthetic Herp (Syn-Herp-10 amino acid (AA) version). The tests were read after six days and TCID/50 were calculated from CPE.

[2] = test system: uninfected cells; details: up to 200 μg/ml

Row | Substance | antiviral activity / inhibition of herpes viruses [1] | effect on the respective uninfected cells [2]
1 | Asn-Leu-Tyr-Gln-Phe (NLYQF; SYNTHESIZED. CORRESPONDS TO POSITIONS 1-5 OF SEQ. ID. NO. 1.) [SEQ. ID. NO. 3, synthetic Herp of 5 amino acids from the N-terminal] | good results | 
2 | NLYQFKNMIQ [Syn Herp, Asn-Leu-Tyr-Gln-Phe-Lys-Asn-Met-Ile-Gln] |  | no effect
3 | NLYQFKNMIQQFL [SEQ. ID. NO. 1] | good results | 
